Measured values as given in US9169241B2, “Quinolinyloxyphenylsulfonamides” (Max-Planck-Gesellschaft Zur Forderung der Wissenschaften …, priority 2009, dated 2015).

How the values were obtained:
Hs578T [1] = experiment: Matrigel outgrowth assay/branching assay; type: cell-based; conditions: Homo sapiens, Hs-578T; HS578T cell line; Table Ib; read-out: Total branching inhibition in Matrigel HS578T
Summary of the method: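 Read-out: microscopic images of invasive branching structures at 48 h, 72 h and 96 h. Cells sat on a 3 mg/ml Matrigel layer (set 1 h, 37° C) with compound at 3.125, 1.56 and 0.78 μM or DMSO. A concentration counts as positive only with complete branching inhibition.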

Hs578T [2] = experiment: Wound healing migration assay; type: cell-based; conditions: Homo sapiens, Hs-578T; HS578T cell line; Table Ib
Summary of the method: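 Cells seeded at 150000/24 well, grown to monolayer overnight, scratched with a pipette tip, then treated with compound at 12.5, 6.25 or 3.125 μM versus DMSO. Stopped by crystal violet fixation at 48-72 h once control wounds closed; IC50 taken as 50% wound size between t0 and t48 or t72.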

[3] = molecular target: T1, wild type AXL (wtAXL) receptor tyrosine kinase (Homo sapiens, UniProt P30530); experiment: NIH-3T3-AXL cellular kinase assay (pY-AXL-ELISA); type: cell-based; conditions: NIH-3T3-AXL (clone 22) cells, serum depleted, compounds 1 h; Table Ia
T1 construct: WtAXL cDNA was cloned into vector pLXSN(ESK) and transfected into Phoenix E packaging cells; expressed in transfected cells; host or cells: NIH3T3 N7 (mouse fibroblasts), retrovirally infected, clone 22
T1 sequence (P30530 26-894): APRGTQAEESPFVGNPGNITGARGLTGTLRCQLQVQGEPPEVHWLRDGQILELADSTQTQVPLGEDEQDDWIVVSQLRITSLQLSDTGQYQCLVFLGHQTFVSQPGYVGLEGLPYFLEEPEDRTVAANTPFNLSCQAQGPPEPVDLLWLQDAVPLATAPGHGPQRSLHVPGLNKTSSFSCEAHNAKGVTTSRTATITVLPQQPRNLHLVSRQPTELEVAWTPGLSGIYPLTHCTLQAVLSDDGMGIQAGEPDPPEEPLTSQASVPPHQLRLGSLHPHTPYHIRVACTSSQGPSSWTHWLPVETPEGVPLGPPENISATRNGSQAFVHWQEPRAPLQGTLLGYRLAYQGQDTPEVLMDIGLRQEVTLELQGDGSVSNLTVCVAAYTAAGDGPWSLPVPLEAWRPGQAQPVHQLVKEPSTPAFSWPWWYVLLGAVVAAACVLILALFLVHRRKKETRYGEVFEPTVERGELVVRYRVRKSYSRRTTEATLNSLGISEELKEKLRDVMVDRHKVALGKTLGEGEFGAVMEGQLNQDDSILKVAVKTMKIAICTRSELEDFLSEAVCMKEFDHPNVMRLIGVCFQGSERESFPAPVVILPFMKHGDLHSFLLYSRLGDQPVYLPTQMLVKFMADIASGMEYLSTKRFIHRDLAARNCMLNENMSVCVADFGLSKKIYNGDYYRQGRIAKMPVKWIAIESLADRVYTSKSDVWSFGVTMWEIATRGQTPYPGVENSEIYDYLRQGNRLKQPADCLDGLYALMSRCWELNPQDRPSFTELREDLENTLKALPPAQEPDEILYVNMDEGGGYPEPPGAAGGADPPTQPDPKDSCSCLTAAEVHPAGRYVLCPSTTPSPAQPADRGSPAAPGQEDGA
Summary of the method: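 NIH3T3 cells stably expressing human wild-type AXL (retroviral, puromycin-selected clones) were treated with serial compound dilutions for 1 h and lysed. AXL tyrosine phosphorylation was measured by ELISA on the lysates: biotinylated 4G10 anti-phosphotyrosine, streptavidin-alkaline phosphatase, AttoPhos fluorescence at 430/560 nm after 90 min.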

Hs578T [4] = experiment: Cell vitality assay (ATP assay, CellTiter-Glo); type: cell-based; conditions: Homo sapiens, Hs-578T; HS578T cell line, 72 h; Table Ib; read-out: IC50 ATP-Assay HS578T after 72 h
Summary of the method: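 1000 cells/well were exposed to compound at 12.5 μM down to 0.195 μM (twofold steps) or DMSO for 72 h. ATP was then measured by luminescence after 10 min reagent lysis at room temperature. IC50 was taken as the concentration giving 50% of the DMSO-control ATP level.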

| Compound | IC50 (Hs578T [1]) [µM] | IC50 (Hs578T [2]) [µM] | IC50 [3] [nM] | IC50 (Hs578T [4]) [µM] | melting point [°C] |
| --- | --- | --- | --- | --- | --- |
| COc1cc2c(Oc3cc(NS(=O)(=O)c4cc(Cl)ccc4Cl)ccc3F)ccnc2cc1OCCCN1CCC(C)CC1 [Example 191, 2,5-Dichloro-N-(4-fluoro-3-{6-methoxy-7-[3-(4-methyl-piperidin-1-yl)-propoxy]-quinolin-4-yloxy}-phenyl)-benzenesulfonamide] | 10 to 25 | ≤ 12.5 | 500 to 3000 | ≤ 12.5 | 127 to 130 |
| COc1cc2c(Oc3ccc(Cl)c(NS(=O)(=O)c4cc(F)ccc4F)c3)ccnc2cc1OCCCN1CCC(C)CC1 [Example 193, N-(2-Chloro-5-{6-methoxy-7-[3-(4-methyl-piperidin-1-yl)-propoxy]-quinolin-4-yloxy}-phenyl)-2,5-difluoro-benzenesulfonamide] | 10 to 25 | ≤ 12.5 | 500 to 3000 | 12.5 to 50 | 206 to 208 |
| COc1cc2c(Oc3ccc(Cl)c(NS(=O)(=O)c4c(F)cccc4F)c3)ccnc2cc1OCCCN1CCC(C)CC1 [Example 194, N-(2-Chloro-5-{6-methoxy-7-[3-(4-methyl-piperidin-1-yl)-propoxy]-quinolin-4-yloxy}-phenyl)-2,6-difluoro-benzenesulfonamide] | 10 to 25 | 12.5 to 50 | 500 to 3000 | 12.5 to 50 | 222 to 226 |
| COc1cc2c(Oc3ccc(Cl)c(NS(=O)(=O)c4cc(Cl)ccc4Cl)c3)ccnc2cc1OCCCN1CCC(C)CC1 [Example 197, 2,5-Dichloro-N-(2-chloro-5-{6-methoxy-7-[3-(4-methyl-piperidin-1-yl)-propoxy]-quinolin-4-yloxy}-phenyl)-benzenesulfonamide] | 10 to 25 | 12.5 to 50 | 500 to 3000 | 12.5 to 50 | 223 to 224 |
| COc1cc2c(Oc3ccc(Cl)c(NS(=O)(=O)c4c(Cl)cccc4Cl)c3)ccnc2cc1OCCCN1CCC(C)CC1 [Example 198, 2,6-Dichloro-N-(2-chloro-5-{6-methoxy-7-[3-(4-methyl-piperidin-1-yl)-propoxy]-quinolin-4-yloxy}-phenyl)-benzenesulfonamide] | 10 to 25 | 12.5 to 50 | 500 to 3000 | 12.5 to 50 | 206 to 208 |
| COc1ccc2nccc(Oc3ccc(NS(=O)(=O)c4cc(F)ccc4F)cc3F)c2c1 [Example 199, 2,5-Difluoro-N-[3-fluoro-4-(6-methoxy-quinolin-4-yloxy)-phenyl]-benzenesulfonamide] | 10 to 25 | 12.5 to 50 | 500 to 3000 | 12.5 to 50 | 249 to 250 |
| COc1ccc2nccc(Oc3ccc(NS(=O)(=O)c4ccccc4C(F)(F)F)cc3F)c2c1 [Example 201, N-[3-Fluoro-4-(6-methoxy-quinolin-4-yloxy)-phenyl]-2-trifluoromethyl-benzenesulfonamide] | 10 to 25 | 12.5 to 50 | 500 to 3000 | 12.5 to 50 | 168 to 169 |
| COc1ccc2nccc(Oc3ccc(NS(=O)(=O)c4ccccc4OC(F)(F)F)cc3F)c2c1 [Example 202, N-[3-Fluoro-4-(6-methoxy-quinolin-4-yloxy)-phenyl]-2-trifluoromethoxy-benzenesulfonamide] | 10 to 25 | 12.5 to 50 | 500 to 3000 | 12.5 to 50 | 175 to 176 |
| COc1cc2c(Oc3ccc(NS(=O)(=O)c4cc(F)ccc4F)cc3OC)ccnc2cc1OCCCN1CCC(C)CC1 [Example 207, 2,5-Difluoro-N-(3-methoxy-4-{6-methoxy-7-[3-(4-methyl-piperidin-1-yl)-propoxy]-quinolin-4-yloxy}-phenyl)-benzenesulfonamide] | 10 to 25 | ≤ 12.5 | 500 to 3000 | ≤ 12.5 | 170 to 172 |
| COc1cc2c(Oc3ccc(NS(=O)(=O)c4ccccc4C(F)(F)F)cc3OC)ccnc2cc1OCCCN1CCC(C)CC1 [Example 208, N-(3-Methoxy-4-{6-methoxy-7-[3-(4-methyl-piperidin-1-yl)-propoxy]-quinolin-4-yloxy}-phenyl)-2-trifluoromethyl-benzenesulfonamide] | 10 to 25 | 12.5 to 50 | < 500 | ≤ 12.5 | 216 to 218 |
